Assay results published in PubChem BioAssay (NCI).
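Cultured in 96-well plates, cells were exposed to test compound for 48 hours across five concentrations. At the GI50, growth is halved. TGI is the concentration that stops growth completely.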

Legend:
Assay in all cases: NCI tumour cell line growth inhibition, 48 h
SW-620 colon = system: SW-620 colon
SN12C renal = system: SN12C renal
SK-MEL-28 melanoma = system: SK-MEL-28 melanoma
SK-MEL-5 melanoma = system: SK-MEL-5 melanoma
MALME-3M melanoma = system: MALME-3M melanoma
SK-OV-3 ovarian = system: SK-OV-3 ovarian
EKVX NSCLC = system: EKVX NSCLC
NCI-H23 lung = system: NCI-H23 lung
UACC-257 melanoma = system: UACC-257 melanoma
CAKI-1 renal = system: CAKI-1 renal
OVCAR-4 ovarian = system: OVCAR-4 ovarian
SNB-19 CNS = system: SNB-19 CNS
TK-10 renal = system: TK-10 renal
CCRF-CEM leukemia = system: CCRF-CEM leukemia
MDA-MB-231 breast = system: MDA-MB-231 breast
HS 578T breast = system: HS 578T breast
KM12 colon = system: KM12 colon
HT29 colon = system: HT29 colon
SNB-75 CNS = system: SNB-75 CNS
A498 renal = system: A498 renal
T-47D breast = system: T-47D breast
ACHN renal = system: ACHN renal
SF-539 CNS = system: SF-539 CNS
HCC-2998 colon = system: HCC-2998 colon
SR leukemia = system: SR leukemia
M14 melanoma = system: M14 melanoma
U251 CNS = system: U251 CNS
MOLT-4 leukemia = system: MOLT-4 leukemia
RPMI-8226 leukemia = system: RPMI-8226 leukemia
SF-295 CNS = system: SF-295 CNS
COLO 205 colon = system: COLO 205 colon
IGROV1 ovarian = system: IGROV1 ovarian
BT-549 breast = system: BT-549 breast
K-562 leukemia = system: K-562 leukemia
HOP-62 NSCLC = system: HOP-62 NSCLC
UACC-62 melanoma = system: UACC-62 melanoma
MDA-MB-435 = system: MDA-MB-435
OVCAR-5 ovarian = system: OVCAR-5 ovarian
HOP-92 NSCLC = system: HOP-92 NSCLC
NCI-H522 lung = system: NCI-H522 lung
SF-268 CNS = system: SF-268 CNS
SK-MEL-2 melanoma = system: SK-MEL-2 melanoma
786-0 renal = system: 786-0 renal
RXF 393 renal = system: RXF 393 renal
HCT-15 colon = system: HCT-15 colon
MDA-MB-468 breast = system: MDA-MB-468 breast
HCT-116 colon = system: HCT-116 colon
OVCAR-3 ovarian = system: OVCAR-3 ovarian
UO-31 renal = system: UO-31 renal
MCF7 breast = system: MCF7 breast
NCI-H226 lung = system: NCI-H226 lung
HL-60(TB) leukemia = system: HL-60(TB) leukemia
OVCAR-8 ovarian = system: OVCAR-8 ovarian
LOX IMVI melanoma = system: LOX IMVI melanoma
PC-3 prostate = system: PC-3 prostate
NCI-H460 lung = system: NCI-H460 lung
DU-145 prostate = system: DU-145 prostate
A549 NSCLC = system: A549 NSCLC

CCCCOc1ccc(NC(=O)c2sc3nc(C)ccc3c2N)cc1
GI50 (SW-620 colon): 11.4 µM | TGI (SW-620 colon): 31 µM | GI50 (SN12C renal): 4.09 µM | TGI (SN12C renal): 22.8 µM | GI50 (SK-MEL-28 melanoma): 12.2 µM | TGI (SK-MEL-28 melanoma): 29.8 µM | GI50 (SK-MEL-5 melanoma): 2 µM | TGI (SK-MEL-5 melanoma): 10.2 µM | GI50 (MALME-3M melanoma): 5.31 µM | TGI (MALME-3M melanoma): 19.4 µM | GI50 (SK-OV-3 ovarian): 6.36 µM | TGI (SK-OV-3 ovarian): 20 µM | GI50 (EKVX NSCLC): 2.17 µM | TGI (EKVX NSCLC): 14.7 µM | GI50 (NCI-H23 lung): 1.5 µM | TGI (NCI-H23 lung): 3.56 µM | GI50 (UACC-257 melanoma): 10 µM | TGI (UACC-257 melanoma): 44.6 µM | GI50 (CAKI-1 renal): 3.47 µM | TGI (CAKI-1 renal): 16.7 µM | GI50 (OVCAR-4 ovarian): 1.49 µM | TGI (OVCAR-4 ovarian): 5.97 µM | GI50 (SNB-19 CNS): 3.47 µM | TGI (SNB-19 CNS): 13.8 µM | GI50 (TK-10 renal): 5.57 µM | TGI (TK-10 renal): 20.4 µM | GI50 (CCRF-CEM leukemia): 54 µM | TGI (CCRF-CEM leukemia): > 100 µM | GI50 (MDA-MB-231 breast): 2.93 µM | TGI (MDA-MB-231 breast): 10.6 µM | GI50 (HS 578T breast): 5.97 µM | TGI (HS 578T breast): 38.7 µM | GI50 (KM12 colon): 3.96 µM | TGI (KM12 colon): 18.5 µM | GI50 (HT29 colon): 6.83 µM | TGI (HT29 colon): 26.3 µM | GI50 (SNB-75 CNS): 2.39 µM | TGI (SNB-75 CNS): 9.02 µM | GI50 (A498 renal): 14.9 µM | TGI (A498 renal): 28.5 µM | GI50 (T-47D breast): 2.82 µM | TGI (T-47D breast): 25.7 µM | GI50 (ACHN renal): 2.72 µM | TGI (ACHN renal): 12.7 µM | GI50 (SF-539 CNS): 1.89 µM | TGI (SF-539 CNS): 3.77 µM | GI50 (HCC-2998 colon): 4.73 µM | TGI (HCC-2998 colon): 20.6 µM | GI50 (SR leukemia): 3.3 µM | TGI (SR leukemia): > 100 µM | GI50 (M14 melanoma): 12.6 µM | TGI (M14 melanoma): 35.2 µM | GI50 (U251 CNS): 3.41 µM | TGI (U251 CNS): 11.1 µM | GI50 (MOLT-4 leukemia): 7.46 µM | TGI (MOLT-4 leukemia): > 100 µM | GI50 (RPMI-8226 leukemia): 8.14 µM | TGI (RPMI-8226 leukemia): > 100 µM | GI50 (SF-295 CNS): 2.59 µM | TGI (SF-295 CNS): 10.3 µM | GI50 (COLO 205 colon): 19.3 µM | TGI (COLO 205 colon): 54.4 µM | GI50 (IGROV1 ovarian): 4.1 µM | TGI (IGROV1 ovarian): 17.4 µM | GI50 (BT-549 breast): 2.56 µM | TGI (BT-549 breast): 10.2 µM | GI50 (K-562 leukemia): 2.85 µM | TGI (K-562 leukemia): > 100 µM | GI50 (HOP-62 NSCLC): 10.6 µM | TGI (HOP-62 NSCLC): 28 µM | GI50 (UACC-62 melanoma): 6.89 µM | TGI (UACC-62 melanoma): 22.9 µM | GI50 (MDA-MB-435): 4.96 µM | TGI (MDA-MB-435): 22.1 µM | GI50 (OVCAR-5 ovarian): 4.61 µM | TGI (OVCAR-5 ovarian): 28.8 µM | GI50 (HOP-92 NSCLC): 5.71 µM | TGI (HOP-92 NSCLC): 22.8 µM | GI50 (NCI-H522 lung): 2.88 µM | TGI (NCI-H522 lung): 15.2 µM | GI50 (SF-268 CNS): 6.39 µM | TGI (SF-268 CNS): 29.9 µM | GI50 (SK-MEL-2 melanoma): 8.95 µM | TGI (SK-MEL-2 melanoma): 31.4 µM | GI50 (786-0 renal): 1.86 µM | TGI (786-0 renal): 4.21 µM | GI50 (RXF 393 renal): 2.98 µM | TGI (RXF 393 renal): 12.9 µM | GI50 (HCT-15 colon): 3.87 µM | TGI (HCT-15 colon): 17.7 µM | GI50 (MDA-MB-468 breast): 1.23 µM | TGI (MDA-MB-468 breast): 3.29 µM | GI50 (HCT-116 colon): 2.28 µM | TGI (HCT-116 colon): 6.04 µM | GI50 (OVCAR-3 ovarian): 2.8 µM | TGI (OVCAR-3 ovarian): 8.65 µM | GI50 (UO-31 renal): 2.32 µM | TGI (UO-31 renal): 11.2 µM | GI50 (MCF7 breast): 3.07 µM | TGI (MCF7 breast): 16.4 µM | GI50 (NCI-H226 lung): 2.89 µM | TGI (NCI-H226 lung): 18.7 µM | GI50 (HL-60(TB) leukemia): 49.9 µM | TGI (HL-60(TB) leukemia): > 100 µM | GI50 (OVCAR-8 ovarian): 2.61 µM | TGI (OVCAR-8 ovarian): 6.67 µM | GI50 (LOX IMVI melanoma): 2.36 µM | TGI (LOX IMVI melanoma): 6.68 µM | GI50 (PC-3 prostate): 7.74 µM | TGI (PC-3 prostate): > 100 µM | GI50 (NCI-H460 lung): 3.23 µM | TGI (NCI-H460 lung): 10.9 µM | GI50 (DU-145 prostate): 5.29 µM | TGI (DU-145 prostate): 36.1 µM | GI50 (A549 NSCLC): 3.22 µM | TGI (A549 NSCLC): 9.73 µM
